In publication PMC2430599, “Solution Structure and Sugar-Binding Mechanism of Mouse Latrophilin-1 RBL: a 7TM Receptor-Attached Lectin-Like Domain” (Structure(London, England:1993), 2008):
Substitutions are numbered along the chain they refer to. Values joined by “and” are separate entries in the source; they are usually repeats but may differ in a detail not shown here. Equal entries are not always repeated.

Key:
[1] = target: T1, RBL domain of mouse Lat-1 (WT) (Mus musculus, UniProt Q80TR1); experiment: NMR chemical shift perturbation titration of carbohydrates, wild-type RBL; assay type: binding; settings: for Kd / Kd, WT: NMR titration, 30°C, 20 mM sodium phosphate pH 7.0, error from curve fitting, NBD = no binding detected (up to 100 mM compound)
T1 construct: Analytical ultracentrifugation experiments on RBL (residues 30–134) and larger constructs indicated a monomer in solution; α-factor signal propeptide (secretion leader) (N, cleaved yes); made in house; host or cells: Pichia pastoris strain X-33
T1 sequence (Q80TR1 30-134): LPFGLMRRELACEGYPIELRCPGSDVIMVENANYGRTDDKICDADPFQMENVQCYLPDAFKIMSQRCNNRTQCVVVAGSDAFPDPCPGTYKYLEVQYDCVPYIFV
Text: (§1) (B) Ligand titrations induced chemical shift perturbations in the NMR spectra as indicated by arrows. (C) The extent of these perturbations was plotted against ligand concentration and fitted to extract equilibrium parameters using the equation Δδ=Δδsat(([P]+[L]+Kd)−([P]+[L]+Kd)^2−4[P][L])/2[P] , where [P] and [L] are protein and ligand concentrations, respectively, Δδ the shift perturbation measured for each titration point and Δδsat the perturbation at saturation. Multiple perturbed resonances can be fitted simultaneously to different Δδsat values for each resonance and a single Kd value. Equilibrium parameters (Ka) measured for different compounds under the same conditions are compared in a logarithmic plot with error bars derived from the fit (D).
We studied the direct interaction of RBL with carbohydrates by monitoring NMR spectral perturbations induced by binding (Figures 1B–1D).
(§2) All experiments were performed at 30°C with home-built spectrometers, with 11.7 T, 14.1 T, 17.6 T, or 22.3 T field strengths. NMR samples consisted of 1–2 mM protein in a 20 mM sodium phosphate buffer (pH 7.0, 2 mM EDTA, 0.1 mM DSS, 0.02% NaN3) in 5% or 100% D2O, unless otherwise noted.

RBL E42A = target: T2, RBL E42A (Mus musculus, UniProt Q80TR1, E42A); experiment: NMR titration, RBL E42A mutant; settings: NBD = no binding detected
T2 construct: Analytical ultracentrifugation experiments on RBL (residues 30–134) and larger constructs indicated a monomer in solution; α-factor signal propeptide (secretion leader) (N, cleaved yes); made in house; host or cells: Pichia pastoris strain X-33
T2 sequence (Q80TR1 30-134 E42A): T1 sequence (Q80TR1 30-134) with E13A
Text: as §1
(§3) We created substitutions in these two residues of RBL and determined carbohydrate affinity by NMR titrations (Table 1).
as §2

RBL E42R = target: T3, RBL E42R (Mus musculus, UniProt Q80TR1, E42R); experiment: NMR titration, RBL E42R mutant; settings: NBD = no binding detected
T3 construct: Analytical ultracentrifugation experiments on RBL (residues 30–134) and larger constructs indicated a monomer in solution; α-factor signal propeptide (secretion leader) (N, cleaved yes); made in house; host or cells: Pichia pastoris strain X-33
T3 sequence (Q80TR1 30-134 E42R): T1 sequence (Q80TR1 30-134) with E13R
Text: as §1, §3, §2

RBL K120R = target: T4, RBL K120R (Mus musculus, UniProt Q80TR1, K120R); experiment: NMR titration, RBL K120R mutant; settings: NBD = no binding detected
T4 construct: Analytical ultracentrifugation experiments on RBL (residues 30–134) and larger constructs indicated a monomer in solution; α-factor signal propeptide (secretion leader) (N, cleaved yes); made in house; host or cells: Pichia pastoris strain X-33
T4 sequence (Q80TR1 30-134 K120R): T1 sequence (Q80TR1 30-134) with K91R
Text: as §1, §3, §2

RBL K120A = target: T5, RBL K120A (Mus musculus, UniProt Q80TR1, K120A); experiment: NMR titration, RBL K120A mutant; settings: NBD = no binding detected
T5 construct: Analytical ultracentrifugation experiments on RBL (residues 30–134) and larger constructs indicated a monomer in solution; α-factor signal propeptide (secretion leader) (N, cleaved yes); made in house; host or cells: Pichia pastoris strain X-33
T5 sequence (Q80TR1 30-134 K120A): T1 sequence (Q80TR1 30-134) with K91A
Text: as §1, §3, §2

SUEL = SUEL (Heliocidaris crassispina, UniProt P22031); experiment: biochemical; assay type: binding, sea urchin
Sequence of SUEL (P22031 whole entry, the tested form may be a part): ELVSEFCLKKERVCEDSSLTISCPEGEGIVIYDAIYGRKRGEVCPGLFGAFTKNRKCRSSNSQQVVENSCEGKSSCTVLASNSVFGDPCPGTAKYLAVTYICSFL

[2] = target: T6, RBL domain of mouse Lat-1 (Mus musculus, UniProt Q80TR1); experiment: Printed glycan array chip screen with AlexaFluor 488 labelled RBL (Consortium for Functional Glycomics); assay type: binding
T6 construct: Analytical ultracentrifugation experiments on RBL (residues 30–134) and larger constructs indicated a monomer in solution; α-factor signal propeptide (secretion leader) (N, cleaved yes); made in house; host or cells: Pichia pastoris strain X-33
T6 sequence (Q80TR1 30-134): T1 sequence (Q80TR1 30-134)
Experimental: RBL extensively dialyzed against PBS was fluorescently labeled with the AlexaFluor 488 protein labeling kit (Invitrogen). After labeling, free dye was removed by gel filtration chromatography, and the labeling efficiency was estimated as 30%. Approximately 0.1 mg of labeled protein was provided to the Consortium for Functional Glycomics (National Institute of General Medical Sciences/National Institutes of Health) for screening in a printed glycan array chip (version 3.0, 320 glycan targets).

Compound | Kd [1] | Kd, WT [1] | further results
C[C@@H]1O[C@@H](O[C@H]2C[C@@H](O)[C@]3(CO)[C@H]4[C@H](O)C[C@]5(C)[C@@H](C6=CC(=O)OC6)CC[C@]5(O)[C@@H]4CC[C@]3(O)C2)[C@H](O)[C@H](O)[C@H]1O [Ouabain] | 2.21 ± 0.03 mM | – | –
C[C@@H]1OC(O)[C@H](O)[C@H](O)[C@H]1O (stereo partly drawn) [L-rhamnose] | 1.8 mM and 1.78 mM | – | Kd, E42A (RBL E42A): NBD; Kd, E42R (RBL E42R): NBD; Kd, K120R (RBL K120R): NBD; Kd, K120A (RBL K120A): NBD; Kd (SUEL): 0.1 to 0.2 mM; affinity of SUEL relative to Lat-1 RBL (times tighter) (SUEL; SUEL Kd vs Lat-1 RBL Kd 1.8 mM, ref Hosono et al., 1999): 10
C[C@H](O)[C@@H](O)[C@@H](O)[C@H](O)C=O [L-fucose] | – | NBD ^c | –
Galα1-3(Fucα1-2)Galβ1-3GlcNAcβ-Sp0 [glycan #95] | – | – | binding in NMR titration compared to galactose ([1]; NMR titration with glycan as ligand): did not show stronger or altered binding compared to galactose; binding on immobilized glycan array ([2]; fluorescently labeled RBL, glycan array version 3.0, 320 glycan targets, triplicate): any interaction; level of fluorescent signal relative to what is commonly found in this assay ([2]; glycan array version 3.0): approximately 1/20
O[C@@H]1[C@@H](O)[C@@H](O)CO[C@H]1O [L-arabinose] | 75 ± 1.3 mM | – | –
OC[C@H]1OC(O)[C@H](O)[C@@H](O)[C@H]1O (stereo partly drawn) [D-galactose] | 33.6 ± 0.4 mM | – | Kd, E42A (RBL E42A): NBD; Kd, E42R (RBL E42R): NBD; Kd, K120R (RBL K120R): NBD; Kd, K120A (RBL K120A): NBD
C[C@H]1OC(O)[C@H](O)[C@@H](O)[C@H]1O (stereo partly drawn) [D-fucose] | 61 ± 1.3 mM | – | –
O=C[C@H](O)[C@@H](O)[C@H](O)[C@H](O)C(=O)O [D-glucuronic acid] | – | NBD | –
CC(=O)N[C@@H]1[C@@H](O)[C@H](O)[C@@H](CO)O[C@H]1O [N-acetyl glucosamine] | – | NBD | –
CC(=O)N[C@H]1[C@H]([C@H](O)[C@H](O)CO)OC(O)(C(=O)O)C[C@@H]1O (stereo partly shown) [N-acetyl neuraminic acid] | – | NBD | –
OC[C@H]1OC(O)[C@H](O)[C@@H](O)[C@@H]1O (stereo partly drawn) [D-glucose] | – | NBD | –
OC1OC[C@@H](O)[C@@H](O)[C@@H]1O (stereo partly drawn) [D-arabinose] | – | NBD | –
OC[C@H]1OC(O)[C@@H](O)[C@@H](O)[C@@H]1O (stereo partly drawn) [D-mannose] | – | NBD | –
CC(=O)N[C@@H]1[C@@H](O)[C@@H](O)[C@@H](CO)O[C@@H]1O [N-acetyl galactosamine] | – | NBD | –
Heparin | – | NBD | –
OC[C@H]1O[C@H](OCC2O[C@@H](O)[C@H](O)[C@@H](O)[C@@H]2O)[C@H](O)[C@@H](O)[C@H]1O (stereo partly shown) [Melibiose] | 33.3 ± 0.5 mM | – | –
